Laboratory results from ChEMBL document CHEMBL1201862, “PubChem BioAssay data set” (2004).
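These data come from cells grown in 96-well plates and exposed to compound for 48 hours at five concentrations. GI50 marks 50% less growth.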 Calls of active or inactive are those of the source. Rule as the data show it: active = GI50 up to about 1.1 µM and inactive = higher.

Tests used:
Experiment in all cases: DTP human tumour cell line panel, 48 h
HT-29 = system: HT-29
IGROV-1 = system: IGROV-1
MOLT-4 = system: MOLT-4
EKVX = system: EKVX
NCI-H23 = system: NCI-H23
OVCAR-3 = system: OVCAR-3
NCI-H460 = system: NCI-H460
Malme-3M = system: Malme-3M
RXF 631 = system: RXF 631
786-0 = system: 786-0
SNB-19 = system: SNB-19
OVCAR-4 = system: OVCAR-4
A549 = system: A549
KM12 = system: KM12
A498 = system: A498
UO-31 = system: UO-31
UACC-62 = system: UACC-62
DMS-114 = system: DMS-114
SF-295 = system: SF-295
COLO 205 = system: COLO 205
M14 = system: M14
HCT-15 = system: HCT-15
SK-OV-3 = system: SK-OV-3
LXFL 529 = system: LXFL 529
LOX IMVI = system: LOX IMVI
SNB-75 = system: SNB-75
SF-539 = system: SF-539
HOP-18 = system: HOP-18
SR = system: SR
DLD-1 = system: DLD-1
SNB-78 = system: SNB-78
SF-268 = system: SF-268
CCRF-CEM = system: CCRF-CEM
K562 = system: K562
OVCAR-8 = system: OVCAR-8
OVCAR-5 = system: OVCAR-5
RXF 393 = system: RXF 393
ACHN = system: ACHN
RPMI-8226 = system: RPMI-8226
SW-620 = system: SW-620
SN12C = system: SN12C
TK-10 = system: TK-10
SK-MEL-28 = system: SK-MEL-28
HCC 2998 = system: HCC 2998
DMS-273 = system: DMS-273
M19-MEL = system: M19-MEL
HL-60 = system: HL-60
SK-MEL-5 = system: SK-MEL-5
U-251 = system: U-251
NCI-H226 = system: NCI-H226
CAKI-1 = system: CAKI-1
NCI-H522 = system: NCI-H522
HCT-116 = system: HCT-116
KM-20L2 = system: KM-20L2
UACC-257 = system: UACC-257
SK-MEL-2 = system: SK-MEL-2
HOP-92 = system: HOP-92
HOP-62 = system: HOP-62

CC(C)(C)OC1=C(OC(C)(C)C)C(O)(c2ccc(Cl)cc2)C1=O (stereo unspecified) was tested, and the GI50 (HT-29) was > 100 µM (inactive), the GI50 (IGROV-1) was > 100 µM (inactive) and the GI50 (MOLT-4) was > 100 µM (inactive). For the same molecule, the GI50 (EKVX) was > 100 µM (inactive), the GI50 (NCI-H23) was > 100 µM (inactive) and the GI50 (OVCAR-3) was > 100 µM (inactive). For the same molecule, the GI50 (NCI-H460) was > 100 µM (inactive), the GI50 (Malme-3M) was > 100 µM (inactive) and the GI50 (RXF 631) was 86.5 µM (inactive). For the same molecule, the GI50 (786-0) was > 100 µM (inactive), the GI50 (SNB-19) was > 100 µM (inactive) and the GI50 (OVCAR-4) was > 100 µM (inactive). For the same molecule, the GI50 (A549) was > 100 µM (inactive), the GI50 (KM12) was > 100 µM (inactive) and the GI50 (A498) was > 100 µM (inactive). The GI50 (UO-31) was > 100 µM (inactive), the GI50 (UACC-62) was > 100 µM (inactive) and the GI50 (DMS-114) was > 100 µM (inactive). For the same molecule, the GI50 (SF-295) was > 100 µM (inactive), the GI50 (COLO 205) was > 100 µM (inactive) and the GI50 (M14) was > 100 µM (inactive). For the same molecule, the GI50 (HCT-15) was over 100 µM, the GI50 (SK-OV-3) was > 100 µM (inactive) and the GI50 (LXFL 529) was > 100 µM (inactive). The GI50 (LOX IMVI) was > 100 µM (inactive), the GI50 (SNB-75) was 99.3 µM (inactive) and the GI50 (SF-539) was > 100 µM (inactive). The GI50 (HOP-18) was > 100 µM (inactive), the GI50 (SR) was > 100 µM (inactive) and the GI50 (DLD-1) was > 100 µM (inactive). The GI50 (SNB-78) was > 100 µM (inactive), the GI50 (SF-268) was > 100 µM (inactive) and the GI50 (CCRF-CEM) was > 100 µM (inactive). The GI50 (K562) was > 100 µM (inactive), the GI50 (OVCAR-8) was > 100 µM (inactive) and the GI50 (OVCAR-5) was > 100 µM (inactive). The GI50 (RXF 393) was > 100 µM (inactive), the GI50 (ACHN) was > 100 µM (inactive) and the GI50 (RPMI-8226) was > 100 µM (inactive). The GI50 (SW-620) was > 100 µM (inactive), the GI50 (SN12C) was > 100 µM (inactive) and the GI50 (TK-10) was > 100 µM (inactive). For the same molecule, the GI50 (SK-MEL-28) was > 100 µM (inactive), the GI50 (HCC 2998) was > 100 µM (inactive) and the GI50 (DMS-273) was > 100 µM (inactive). The GI50 (M19-MEL) was > 100 µM (inactive), the GI50 (HL-60) was > 100 µM (inactive) and the GI50 (SK-MEL-5) was > 100 µM (inactive). For the same molecule, the GI50 (U-251) was > 100 µM (inactive).

In the case of C[C@H]1CCC2C(CN3CCCCC3)C(=O)OC2[C@]2(C)C(=O)CC(N3CCCCC3)C12O (stereo partly specified), the GI50 (HT-29) is reported as 3.9 µM (inactive), the GI50 (IGROV-1) is reported as 18.8 µM (inactive) and the GI50 (MOLT-4) is reported as 2.21 µM (inactive). The GI50 (EKVX) was 4 µM (inactive), the GI50 (NCI-H23) was 4.3 µM (inactive) and the GI50 (OVCAR-3) was 4.48 µM (inactive). For the same molecule, the GI50 (NCI-H460) was 12.8 µM (inactive), the GI50 (Malme-3M) was 9.44 µM (inactive) and the GI50 (RXF 631) was 1.28 µM (inactive). The GI50 (786-0) was 4.54 µM (inactive), the GI50 (NCI-H226) was 0.083 µM (active) and the GI50 (SNB-19) was 20 µM (inactive). For the same molecule, the GI50 (A549) was 28.2 µM (inactive), the GI50 (KM12) was 3.09 µM (inactive) and the GI50 (A498) was 4.12 µM (inactive). For the same molecule, the GI50 (UO-31) was 13.7 µM (inactive), the GI50 (UACC-62) was 2.36 µM (inactive) and the GI50 (DMS-114) was 3.2 µM (inactive). For the same molecule, the GI50 (SF-295) was 9.1 µM (inactive), the GI50 (COLO 205) was 4.69 µM (inactive) and the GI50 (CAKI-1) was 15.7 µM (inactive). For the same molecule, the GI50 (NCI-H522) was 1.38 µM (inactive), the GI50 (SK-OV-3) was 28.6 µM (inactive) and the GI50 (HCT-116) was 2.94 µM (inactive). The GI50 (SNB-75) was 11.3 µM (inactive), the GI50 (SF-539) was 2.26 µM (inactive) and the GI50 (KM-20L2) was 7.91 µM (inactive). The GI50 (HOP-18) was 29 µM (inactive), the GI50 (SR) was 2.49 µM (inactive) and the GI50 (DLD-1) was 3.34 µM (inactive). The GI50 (SNB-78) was 4.41 µM (inactive), the GI50 (SF-268) was 6.95 µM (inactive) and the GI50 (CCRF-CEM) was 2.34 µM (inactive). The GI50 (K562) was 2.4 µM (inactive), the GI50 (OVCAR-8) was 1.79 µM (inactive) and the GI50 (OVCAR-5) was 10.7 µM (inactive). For the same molecule, the GI50 (RXF 393) was 1.86 µM (inactive), the GI50 (UACC-257) was 3.1 µM (inactive) and the GI50 (SK-MEL-2) was 10.7 µM (inactive). For the same molecule, the GI50 (ACHN) was 2.8 µM (inactive), the GI50 (RPMI-8226) was 2.71 µM (inactive) and the GI50 (SW-620) was 3.64 µM (inactive). The GI50 (SN12C) was 3.75 µM (inactive), the GI50 (TK-10) was 16.6 µM (inactive) and the GI50 (SK-MEL-28) was 4.18 µM (inactive). The GI50 (HCC 2998) was 5.87 µM (inactive), the GI50 (DMS-273) was 3.57 µM (inactive) and the GI50 (HOP-92) was 2.68 µM (inactive). For the same molecule, the GI50 (M19-MEL) was 5.3 µM (inactive), the GI50 (HL-60) was 1.56 µM (inactive) and the GI50 (SK-MEL-5) was 4.73 µM (inactive). For the same molecule, the GI50 (U-251) was 5.53 µM (inactive).

With Oc1nc(S)nc2c1CCCN2 the GI50 (HT-29) was > 100 µM (inactive), the GI50 (IGROV-1) was > 100 µM (inactive) and the GI50 (MOLT-4) was > 100 µM (inactive). For the same molecule, the GI50 (EKVX) was > 100 µM (inactive), the GI50 (NCI-H23) was > 100 µM (inactive) and the GI50 (OVCAR-3) was > 100 µM (inactive). For the same molecule, the GI50 (Malme-3M) was > 100 µM (inactive), the GI50 (RXF 631) was > 100 µM (inactive) and the GI50 (786-0) was > 100 µM (inactive). The GI50 (SNB-19) was > 100 µM (inactive), the GI50 (A549) was > 100 µM (inactive) and the GI50 (KM12) was > 100 µM (inactive). The GI50 (UO-31) was > 100 µM (inactive), the GI50 (UACC-62) was > 100 µM (inactive) and the GI50 (DMS-114) was > 100 µM (inactive). For the same molecule, the GI50 (SF-295) was > 100 µM (inactive), the GI50 (COLO 205) was > 100 µM (inactive) and the GI50 (M14) was > 100 µM (inactive). For the same molecule, the GI50 (HCT-15) was over 100 µM, the GI50 (CAKI-1) was > 100 µM (inactive) and the GI50 (NCI-H522) was > 100 µM (inactive). For the same molecule, the GI50 (SK-OV-3) was > 100 µM (inactive), the GI50 (LXFL 529) was > 100 µM (inactive) and the GI50 (LOX IMVI) was > 100 µM (inactive). For the same molecule, the GI50 (HCT-116) was > 100 µM (inactive), the GI50 (SNB-75) was > 100 µM (inactive) and the GI50 (HOP-18) was > 100 µM (inactive). For the same molecule, the GI50 (SR) was > 100 µM (inactive), the GI50 (DLD-1) was > 100 µM (inactive) and the GI50 (SNB-78) was > 100 µM (inactive). The GI50 (SF-268) was > 100 µM (inactive), the GI50 (CCRF-CEM) was > 100 µM (inactive) and the GI50 (K562) was > 10 µM (inactive). The GI50 (OVCAR-8) was > 100 µM (inactive), the GI50 (OVCAR-5) was > 100 µM (inactive) and the GI50 (RXF 393) was > 100 µM (inactive). The GI50 (UACC-257) was > 100 µM (inactive), the GI50 (SK-MEL-2) was > 100 µM (inactive) and the GI50 (ACHN) was > 100 µM (inactive). The GI50 (RPMI-8226) was > 100 µM (inactive), the GI50 (SW-620) was > 100 µM (inactive) and the GI50 (SN12C) was > 100 µM (inactive). The GI50 (TK-10) was > 100 µM (inactive), the GI50 (SK-MEL-28) was > 100 µM (inactive) and the GI50 (HOP-92) was > 100 µM (inactive). The GI50 (M19-MEL) was > 100 µM (inactive), the GI50 (HL-60) was > 100 µM (inactive) and the GI50 (HOP-62) was > 100 µM (inactive). The GI50 (SK-MEL-5) was > 100 µM (inactive) and the GI50 (U-251) was > 100 µM (inactive).
